Assay results as given in patent US6573271B2, “Method of preventing proliferation of retinal pigment epithelium by retinoic acid receptor agonists” (John Hopkins University School of Medicine, priority 1995, dated 2003).

How the values were obtained:
[1] = test system: retinas of the rabbits; experiment: Ocular toxicity after single intravitreous injection, histopathology of retina; format: in vivo, rabbit; conditions: single intravitreous injection of 100 μg, two weeks after injection
Source text: The rabbits were killed two weeks after injection.

[2] = molecular target: T1, RARγ (Homo sapiens, UniProt P13631); experiment: Transactivation, ER/RAR-γ hybrid receptor + ERE-CAT reporter cotransfected in HeLa cells
T1 sequence (P13631 185-419 limits assumed): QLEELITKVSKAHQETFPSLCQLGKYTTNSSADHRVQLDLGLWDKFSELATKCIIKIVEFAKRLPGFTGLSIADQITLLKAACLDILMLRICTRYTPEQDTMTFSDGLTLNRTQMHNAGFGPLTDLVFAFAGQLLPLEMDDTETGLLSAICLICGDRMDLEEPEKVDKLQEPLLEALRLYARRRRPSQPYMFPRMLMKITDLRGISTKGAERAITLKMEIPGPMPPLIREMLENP

[3] = molecular target: T2, RXRα (Homo sapiens, UniProt P19793); experiment: Transactivation, ER/RXR-α hybrid receptor + ERE-CAT reporter cotransfected in HeLa cells
T2 sequence (P19793 227-458 limits assumed): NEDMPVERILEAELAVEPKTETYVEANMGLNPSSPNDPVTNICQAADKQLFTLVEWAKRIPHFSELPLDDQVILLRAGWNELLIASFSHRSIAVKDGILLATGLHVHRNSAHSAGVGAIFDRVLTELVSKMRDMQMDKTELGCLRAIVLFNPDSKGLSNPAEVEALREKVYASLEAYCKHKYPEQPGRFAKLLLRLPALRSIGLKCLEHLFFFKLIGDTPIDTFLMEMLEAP

[4] = test system: RPE cells; experiment: RPE cell morphology after 10 days in retinoid; format: cell-based, human; conditions: 1 μm, 5% serum, on plastic
[5] = test system: rabbit cell injection model of PVR; experiment: Rabbit cell injection model of PVR (RPE cells), intravitreous injection of retinoids; format: in vivo; conditions: for Any RD (%) / Total RD (%): 28 Days; for frequency and severity of traction retinal detachments versus vehicle: initial group, intravitreous injections of 100 μg; for frequency and severity of retinal detachments versus control: single intravitreous injection one day after RPE cell injection
Experimental: Briefly, pigmented rabbits were anesthetized with a subcutaneous injection of 5 mg/kg of xylazine and 25 mg/kg of ketamine, and the pupil of one eye was dilated with 2½% phenylephrine. Under direct observation 5×10^5 RPE cells were injected into the vitreous cavity just anterior to the optic nerve. […] .
Rabbits were examined by indirect ophthalmoscopy on days 7, 14 and 28 and traction retinal detachments were graded. […] . The localized clouds decreased in size and cleared over 2 to 3 weeks. There were no visible changes in the retina. […] .
It was felt that the hair loss and possibly the loss of appetite and death were due to systemic toxicity from drug that had gotten out of the eye. […] . None of the rabbits experienced hair loss and none died; their appetites appeared to be normal.

[6] = molecular target: T3, RARβ (Homo sapiens, UniProt P10826); experiment: Transactivation, ER/RAR-β hybrid receptor + ERE-CAT reporter cotransfected in HeLa cells
T3 sequence (P10826 183-417 limits assumed): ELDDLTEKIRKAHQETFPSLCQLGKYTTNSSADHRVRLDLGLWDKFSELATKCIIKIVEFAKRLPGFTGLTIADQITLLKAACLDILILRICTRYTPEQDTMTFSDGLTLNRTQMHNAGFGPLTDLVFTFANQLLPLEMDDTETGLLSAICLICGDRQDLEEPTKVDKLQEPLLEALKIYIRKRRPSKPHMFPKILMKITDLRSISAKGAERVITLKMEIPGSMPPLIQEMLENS

[7] = test system: human RPE cells; experiment: [3H]thymidine incorporation / proliferation of cultured human RPE cells; conditions: for inhibition at 0.05 µM / inhibition at 0.1 µM / inhibition at 1 µM: Homo sapiens, RPE, read-out: Percent Inhibition of [3H]thymidine incorporation in RPE cells
Source text: Primary cultures of human retinal pigment epithelium (RPE) cells were established from eyes obtained from the Old Dominion Eye Bank (Richmond, Va.) or the Eye Bank of Maryland (Baltimore, Md.) using the technique described in P. A. Campochiaro, et al., Invest.
For [3H]thymidine incorporation, RPE cells at passage 3 or 4 were lightly trypsinized and plated in 16-mm wells of 24-well plates. The transfected cells were allowed to attach overnight and then the media containing 5% fetal bovine serum (FBS) were supplemented with retinoids or vehicle alone. Stock solutions (10^−3M) of retinoids were prepared in dimethylsulfoxide (DMSO) and stored as frozen aliquots until used; the highest final concentration of DMSO was 0.1% and was also used for control cultures. The media containing freshly prepared retinoids were changed every three days. At 7 or 10 days 2 μCi/ml of [^3H]thymidine (specific activity, 6.7 Ci/mM; New England Nuclear, Boston, Mass.) was added to the cultures and incorporation was measured as previously described (Leschey, supra).
The potency of retinoid agonists for inhibition of serum stimulated DNA synthesis in human RPE cells was tested. […] The cells were shifted to serum-free media containing the same concentration of retinoid and then pulsed with 10% serum for 18 hours, after which [^3H]thymidine incorporation was measured. Thymidine incorporation for cells grown in control medium was used to calculate the percent inhibition of thymidine incorporation induced by four concentrations of each retinoid (each concentration tested in triplicate) which were then used to generate each line.

[8] = test system: traction retinal detachment in rabbits; experiment: Traction retinal detachment in rabbits after human RPE cells, subconjunctival injection; format: in vivo, rabbit; conditions: subconjunctival 0.3 mg once a day for five days
Source text: Due to the toxicity of certain RAR agonists and because the effects of retinoids are delayed in onset and reversible, methods for sustained release of the retinoids were investigated. […] The therapeutic effect of the RAR specific agonists was greater than that of RA, which is an agonist for both RXRs and RARs. There were no signs of any toxicity to the retina.

[9] = test system: traction retinal detachment in rabbits; experiment: Traction retinal detachment in rabbits after human dermal fibroblasts, subconjunctival lipid microvesicles; format: in vivo, rabbit; conditions: human dermal fibroblasts
[10] = test system: rabbit model of PVR; conditions: 2 to 20 μg/ml SiO, 8 weeks; untreated controls 100%; cited from earlier work
[11] = test system: traction retinal detachment in rabbits; experiment: Traction retinal detachment in rabbits after human dermal fibroblasts, subconjunctival injection
[12] = test system: traction retinal detachment in rabbits; experiment: Traction retinal detachment in rabbits after human RPE cells, intravitreal injection of 168 and 299; format: in vivo, rabbit
[13] = test system: rabbit model of PVR; conditions: about 100 μg in biodegradable microspheres, vitreous cavity; cited from earlier work
[14] = test system: traction retinal detachment in rabbits; experiment: Traction retinal detachment in rabbits after human dermal fibroblasts, intravitreous lipid microvesicles
Source text: In this experiment the retinoid was incorporated into lipid microvesicles utilizing standard techniques.

[15] = 100 μg intravitreous, two injections (day 1 and day 2 after cell injection)
[16] = 100 μg intravitreous, two injections
[17] = 100 μg, single intravitreous injection
[18] = 50 μg, single intravitreous injection

## C/C(=C\c1cc(C(=O)O)cs1)c1cc2c(cc1C)C(C)(C)CCC2(C)C [Compound 701, 2-[(E)-2-(5,6,7,8-tetrahydro-3,5,5,8,8-pentamethylnaphthaleen-2-yl)propen-1-yl]thiophene-4-carboxylic acid]
[1]
  inner retinal edema, histopathology: a few focal areas of inner retinal edema
  retinal necrosis, histopathology: a few focal areas of retinal necrosis
[2]
  EC50: 1000 nM
[3]
  EC50: 100 nM
[4]
  RPE cell morphology / cell overgrowth: failed to prevent cell overgrowth
[5]; [15]
  Partial RD at 14 Days (number of eyes): 3
  Partial RD at 28 Days (number of eyes): 2
  Total RD at 14 Days (number of eyes): 3
  Total RD at 28 Days (number of eyes): 5
[5]; [16]
  Any RD (%): 87.5%
  Total RD (%): 62.5%
[5]; [17]
  Partial RD at 14 Days (number of eyes): 2
  Partial RD at 28 Days (number of eyes): 1
  Total RD at 14 Days (number of eyes): 2
  Total RD at 28 Days (number of eyes): 3
  Any RD (%): 80%
  Total RD (%): 60%
[5]
  frequency and severity of traction retinal detachments versus vehicle: did not differ from controls
  frequency and severity of retinal detachments versus control: not statistically different from controls
[6]
  EC50: 3000 nM
[7]
  inhibition at 0.05 µM: 12%
  inhibition at 0.1 µM: 48.8%
  inhibition at 1 µM: 74.6%
[7]; incubation for 7 or 10 days
  inhibition of RPE [3H]thymidine incorporation: much less effective inhibitor

## CC1=C(/C=C/C(C)=C/C=C/C(C)=C/C(=O)O)C(C)(C)CCC1 [All trans RA, all-trans retinoic acid, reference compound]
[8]
  % Any RD: 0%
  % Total RD: 0%
  RD at 7 Days, Partial: 0
  RD at 7 Days, Total: 0
  RD at 14 Days, Partial: 0
  RD at 14 Days, Total: 0
  RD at 28 Days, Partial: 0
  RD at 28 Days, Total: 0
[9]
  % Any RD: 63%
  % Total RD: 13%
  RD at 7 Days, Partial: 0
  RD at 7 Days, Total: 0
  RD at 14 Days, Partial: 0
  RD at 14 Days, Total: 1
  RD at 28 Days, Partial: 4
  RD at 28 Days, Total: 1
[4]
  RPE cell morphology / cell overgrowth: did not exhibit cell overgrowth
[10]
  rate of retinal detachment: 44.5%
[11]
  % Any RD: 50%
  % Total RD: 0%
  RD at 7 Days, Partial: 0
  RD at 7 Days, Total: 0
  RD at 14 Days, Partial: 0
  RD at 14 Days, Total: 0
  RD at 28 Days, Partial: 5
  RD at 28 Days, Total: 0
  effect on retinal detachments: decreased the number of retinal detachments and slowed the rate at which they developed
[12]
  % Any RD: 100%
  % Total RD: 0%
  RD at 7 Days, Partial: 0
  RD at 7 Days, Total: 0
  RD at 14 Days, Partial: 0
  RD at 14 Days, Total: 0
  RD at 28 Days, Partial: 2
  RD at 28 Days, Total: 0
[13]
  tractional retinal detachment (TRD): significantly decreased tractional retinal detachment
[5]; [18]
  Partial RD at 14 Days (number of eyes): 0
  Partial RD at 28 Days (number of eyes): 0
  Total RD at 14 Days (number of eyes): 4
  Total RD at 28 Days (number of eyes): 4
  Any RD (%): 66.7%
  Total RD (%): 66.7%
[5]; [15]
  Partial RD at 14 Days (number of eyes): 2
  Partial RD at 28 Days (number of eyes): 4
  Total RD at 14 Days (number of eyes): 0
  Total RD at 28 Days (number of eyes): 0
[5]; [16]
  Any RD (%): 44.4+ %
  Total RD (%): 0%
[5]; [17]
  Partial RD at 14 Days (number of eyes): 1
  Partial RD at 28 Days (number of eyes): 1
  Total RD at 14 Days (number of eyes): 0
  Total RD at 28 Days (number of eyes): 1
  Any RD (%): 28.6+ %
  Total RD (%): 14.3%
[5]
  frequency and severity of traction retinal detachments versus vehicle: fewer (p(0.05) and less severe traction retinal detachments
  frequency and severity of retinal detachments versus control: fewer (p(0.05) and less severe retinal detachments
[14]
  prevention of traction retinal detachment: not effective
[14]; human dermal fibroblasts
  % Any RD: 67%
  % Total RD: 67%
  RD at 7 Days, Partial: 1
  RD at 7 Days, Total: 0
  RD at 14 Days, Partial: 1
  RD at 14 Days, Total: 1
  RD at 28 Days, Partial: 0
  RD at 28 Days, Total: 4
[7]
  inhibition at 0.05 µM: 52.6%
  inhibition at 0.1 µM: 78.3%
  inhibition at 1 µM: 99.4%
[7]; incubation for 7 days, FIG. 1
  inhibition of [3H]thymidine incorporation in RPE cells: dose-dependent inhibition
